Measured values taken from patent US20120178738A1, “DIBENZO [B,F] [1,4]OXAZAPINE COMPOUNDS” (ARYX THERAPEUTICS, INC., priority 2007, published 2012).

Key:
[1] = target: T1, human D2L dopamine receptors (Homo sapiens, UniProt P14416); test: hD2L receptor radioligand binding ([3H]spiperone); conditions: for Ki: pKi reported on a scale of 1 through 5, read-out: D2L (pKi) (converted)
T1 construct: expressed in transfected cells; host or cells: insect Sf9 cells (membranes)
Method in brief: (§1)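 Equilibrium competition against a fixed radioligand level, using membranes or tissues expressing the receptor and a concentration series of unlabelled compound. Binding was quantified from filtration-separated, nonspecific-corrected concentration-response relationships.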

human 5HT2C receptors = target: T2, human 5HT2C receptors (Homo sapiens, UniProt P28335); test: h5-HT2C receptor radioligand binding ([3H]Mesulergine); conditions: for Ki: pKi reported on a scale of 1 through 5; for binding to 5-HT2c: in words
T2 construct: expressed in transfected cells; host or cells: human embryo kidney cells (membranes)
T2 sequence (P28335 33-458): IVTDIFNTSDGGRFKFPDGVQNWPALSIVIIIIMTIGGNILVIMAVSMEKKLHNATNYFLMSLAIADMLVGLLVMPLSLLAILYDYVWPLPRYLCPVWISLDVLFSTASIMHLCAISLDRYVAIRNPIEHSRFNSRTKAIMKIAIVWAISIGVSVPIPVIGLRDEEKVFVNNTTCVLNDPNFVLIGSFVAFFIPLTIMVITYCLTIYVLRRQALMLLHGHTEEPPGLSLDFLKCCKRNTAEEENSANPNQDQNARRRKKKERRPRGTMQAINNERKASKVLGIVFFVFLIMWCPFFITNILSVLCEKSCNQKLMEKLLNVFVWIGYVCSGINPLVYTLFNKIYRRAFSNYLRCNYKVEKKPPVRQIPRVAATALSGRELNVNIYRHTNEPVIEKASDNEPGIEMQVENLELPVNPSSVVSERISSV
Method in brief: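 Test compound affinity was derived from concentration-dependent displacement of fixed [3H]mesulergine at equilibrium, after subtracting nonspecific binding measured with a reference blocker. Bound and free radioligand were separated by filtration of tissue or plasma-membrane preparations.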

human M3 receptors = target: T3, human M3 receptors (Homo sapiens, UniProt P20309); test: hM3 receptor radioligand binding ([3H]NMS); conditions: for Ki: pKi reported on a scale of 1 through 5, read-out: M3 (pKi) (converted); for affinity to M3 receptors: in words
T3 construct: expressed in transfected cells; host or cells: Chinese hamster ovary cells (membranes)
T3 sequence (P20309 whole entry): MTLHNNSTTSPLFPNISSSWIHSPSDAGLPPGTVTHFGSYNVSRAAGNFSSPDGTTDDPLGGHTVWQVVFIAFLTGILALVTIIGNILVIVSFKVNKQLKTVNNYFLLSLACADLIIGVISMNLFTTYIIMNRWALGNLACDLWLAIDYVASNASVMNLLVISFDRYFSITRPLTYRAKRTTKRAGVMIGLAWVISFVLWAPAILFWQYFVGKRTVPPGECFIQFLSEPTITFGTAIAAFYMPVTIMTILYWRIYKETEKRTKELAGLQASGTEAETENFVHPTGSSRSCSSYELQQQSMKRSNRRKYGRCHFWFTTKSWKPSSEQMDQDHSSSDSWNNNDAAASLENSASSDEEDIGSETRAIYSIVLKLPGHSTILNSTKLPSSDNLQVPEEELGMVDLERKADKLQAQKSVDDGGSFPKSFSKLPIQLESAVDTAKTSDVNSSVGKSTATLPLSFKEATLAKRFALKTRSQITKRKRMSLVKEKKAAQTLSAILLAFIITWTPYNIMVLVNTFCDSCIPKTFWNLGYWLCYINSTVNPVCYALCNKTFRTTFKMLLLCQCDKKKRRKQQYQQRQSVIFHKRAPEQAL
Method in brief: as §1

[2] = Metabolism in pooled human liver microsomes; assay type: in vitro ADME; conditions: for HLMs Enzyme: enzyme type metabolising the compound in HLMs (with/without NADPH); for half-life: pH 7.4, pooled human liver microsomes, disappearance of parent, read-out: HLMs t1/2
Method: Compounds were incubated in pooled human liver microsomes (HLMs) in the presence or absence of an NADPH-generating system. NADPH is required for the activity of cytochrome P450 (CYP) and other oxidative enzymes present in HLMs, but not for esterase activity. An additional incubation was carried out in the absence of HLM to assess compound stability. The disappearance of parent and the appearance of the corresponding acid metabolite were monitored over the time course of the incubations using LC-MS/MS.
A stock solution (20 mM) of each proprietary compound in DMSO was prepared and stored at −20° C. until needed. A working stock solution (0.2 mM) was prepared for each proprietary compound by adding an aliquot of the stock solution (10 μL) to acetonitrile (990 μL).
An aliquot of the HLM solution was removed from the −80° C. freezer and placed on ice. Tris Buffer (50 mM, pH 7.4) containing MgCl2 (hexahydrate, 5 mM) was pre-incubated in a 37° C. water bath. A set of Eppendorf microfuge tubes (1.5 mL) was appropriately labeled. To each tube was added Tris buffer with or without the NADPH generating system. An aliquot of pooled HLMs was added to all the incubations except those that were the buffer control.
Tubes were preincubated for 5 min in a shaking incubator bath (37° C., 900 rpm) and the reaction was initiated by adding an aliquot of the proprietary working solution (5 μL). The additions were timed carefully in order to coordinate the sample collections below. A small aliquot (50 μL) was removed at […] and delivered to the respective tubes containing dextrorphan (100 μL of 0.5 μg/mL solution) dissolved in methanol or acetonitrile. The samples were centrifuged at 14000 g for 15 minutes at 4° C. The supernatant was transferred to clean labeled HPLC injection vials and stored at −80° C. until analyzed. An aliquot of the supernatant (25 μL) was added to water (75 μL), mixed and injected onto the LC-MS/MS system for analysis. Results for some compounds of the invention can be found below in the table in Example 20.

pig liver esterase = test: Metabolism by pig liver esterase with and without human plasma proteins; assay type: in vitro ADME
Method: The esterase-mediated metabolism of these compounds was studied using commercially available pig liver esterase in the presence and absence of human plasma proteins. The disappearance of parent was monitored over the time course of the incubations using a LC-UV detection system.
A stock solution and working stock solution was prepared for each proprietary compound as described for the human liver microsomal incubations. Working solutions of pig liver esterase in potassium phosphate buffer (10 mM, pH 7.4) and pig liver esterase in human plasma protein were prepared by dissolving pig liver esterase (2.51 mg) in the phosphate buffer or plasma protein solutions, respectively.
A set of three Eppendorf microfuge tubes (1.5 mL) was appropriately labeled. To each tube was added 1.5 mL of phosphate buffer, pig liver esterase in buffer, or pig liver esterase in human plasma protein solution. These solutions were pre-incubated (37° C., 900 rpm) and the reactions were initiated by adding an aliquot (37.5 μL) of the working solution of proprietary compound to each tube. An aliquot (100 μL) from each tube was removed at time 0, 5, 30, 60, and 120 min and added to a tube containing acetonitrile (200 μL) to stop the reaction.
The samples were centrifuged at 14000 g for 15 minutes at 4° C. The supernatant was transferred to clean labeled HPLC injection vials and stored at −80° C. until analyzed. An aliquot of the supernatant (25 μL) was injected onto the LC-UV system for analysis.

human 5HT7 receptors = target: T4, human 5HT7 receptors (Homo sapiens, UniProt P34969); test: h5-HT7 receptor radioligand binding ([3H]5-CT); conditions: pKi reported on a scale of 1 through 5; read-out: 5HT7 (pKi) (converted)
T4 construct: expressed in transfected cells; host or cells: Chinese hamster ovary cells (membranes)
T4 sequence (P34969 whole entry): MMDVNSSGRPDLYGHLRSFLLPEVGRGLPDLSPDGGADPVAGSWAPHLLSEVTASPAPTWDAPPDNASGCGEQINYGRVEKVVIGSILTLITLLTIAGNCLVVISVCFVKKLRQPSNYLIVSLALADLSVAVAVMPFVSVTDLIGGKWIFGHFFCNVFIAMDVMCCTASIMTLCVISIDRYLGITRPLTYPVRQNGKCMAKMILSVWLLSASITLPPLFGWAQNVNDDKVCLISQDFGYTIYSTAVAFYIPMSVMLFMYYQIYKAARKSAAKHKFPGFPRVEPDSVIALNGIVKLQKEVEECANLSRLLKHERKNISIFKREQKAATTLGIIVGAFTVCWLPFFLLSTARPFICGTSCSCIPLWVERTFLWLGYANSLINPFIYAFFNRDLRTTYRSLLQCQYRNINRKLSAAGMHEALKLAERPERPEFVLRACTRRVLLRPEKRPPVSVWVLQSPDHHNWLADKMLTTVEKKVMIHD
Method in brief: as §1

[3] = test system: NMDA antagonist-induced deficits in prepulse inhibition in rats; test: Prepulse inhibition (PPI), NMDA antagonist (PCP)-induced deficit; conditions: ip 45 min before, PCP 1.5 mg/kg s.c.
[4] = pig liver esterase in potassium phosphate buffer, pH 7.4, pig liver esterase in phosphate buffer, no plasma protein
[5] = pig, pig liver esterase in human plasma protein solution

T1 sequence (P14416 whole entry): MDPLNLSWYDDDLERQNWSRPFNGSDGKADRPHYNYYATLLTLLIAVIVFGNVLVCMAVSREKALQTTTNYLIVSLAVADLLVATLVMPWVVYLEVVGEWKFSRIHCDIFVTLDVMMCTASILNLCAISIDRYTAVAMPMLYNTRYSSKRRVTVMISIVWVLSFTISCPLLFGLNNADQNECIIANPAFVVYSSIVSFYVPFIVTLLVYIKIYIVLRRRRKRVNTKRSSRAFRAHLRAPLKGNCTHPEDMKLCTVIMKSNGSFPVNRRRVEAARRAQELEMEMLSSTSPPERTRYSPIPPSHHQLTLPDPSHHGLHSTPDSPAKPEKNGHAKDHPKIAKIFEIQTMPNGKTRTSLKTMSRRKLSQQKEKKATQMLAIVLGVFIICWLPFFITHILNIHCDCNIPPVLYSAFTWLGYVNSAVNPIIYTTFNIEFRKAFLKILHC

CCOC(=O)CC1CN(C2=Nc3cc(Cl)ccc3Oc3ccccc32)CCN1 (stereo not drawn) [A, (E)-ethyl 2-(4-(8-chlorodibenzo[b,f][1,4]oxazepin-11-yl)piperazin-2-yl)acetate]
Ki [1]: 0.631 to 2.45 µM
Ki (human 5HT2C receptors): 0.01 to 0.0977 µM
Ki (human M3 receptors): > 10 µM
HLMs Enzyme [2]: Esterase
half-life [2]: 30 min
half-life at 4.9 µM (pig liver esterase; [4]): < 5 min
half-life at 4.9 µM (pig liver esterase; [5]): 15 min

CCOC(=O)C[C@H]1CN(C2=Nc3cc(Cl)ccc3Oc3ccccc32)CCN1CCC(C)C [ER, (S,E)-ethyl 2-(4-(8-chlorodibenzo[b,f][1,4]oxazepin-11-yl)-1-isopentylpiperazin-2-yl)acetate]
HLMs Enzyme [2]: Esterase
half-life [2]: 5 min
half-life at 4.9 µM (pig liver esterase; [4]): < 5 min
half-life at 4.9 µM (pig liver esterase; [5]): 60 min

CCOC(=O)CC1CN(C2=Nc3ccc(F)cc3Oc3ccccc32)CCN1 (stereo not drawn) [J, (E)-ethyl 2-(4-(7-fluorodibenzo[b,f][1,4]oxazepin-11-yl)piperazin-2-yl)acetate]
Ki [1]: 2.51 to 9.77 µM
Ki (human 5HT2C receptors): 0.1 to 0.977 µM
Ki (human M3 receptors): > 10 µM
HLMs Enzyme [2]: Esterase
half-life [2]: 10 min
half-life at 4.9 µM (pig liver esterase; [4]): < 5 min
half-life at 4.9 µM (pig liver esterase; [5]): 15 min

CCC(C)OC(=O)C[C@H]1CN(C2=Nc3cc(Cl)ccc3Oc3ccccc32)CCN1C (stereo partly drawn) [DY, sec-butyl 2-((S)-4-((E)-8-chlorodibenzo[b,f][1,4]oxazepin-11-yl)-1-methylpiperazin-2-yl)acetate]
Ki (human 5HT2C receptors): 0.1 to 0.977 µM
Ki (human M3 receptors): > 10 µM
Ki (human 5HT7 receptors): > 10 µM
HLMs Enzyme [2]: Esterase
half-life [2]: < 5 min
half-life at 4.9 µM (pig liver esterase; [4]): < 5 min
half-life at 4.9 µM (pig liver esterase; [5]): 30 min

O=C(C[C@H]1CN(C2=Nc3cc(Cl)ccc3Oc3ccccc32)CCN1)OC1CCCC1 [DR, (S,E)-cyclopentyl 2-(4-(8-chlorodibenzo[b,f][1,4]oxazepin-11-yl)piperazin-2-yl)acetate]
Ki [1]: 0.631 to 2.45 µM
Ki (human 5HT2C receptors): 0.01 to 0.0977 µM
Ki (human M3 receptors): > 10 µM
Ki (human 5HT7 receptors): 1.58 to 3.89 µM
HLMs Enzyme [2]: Esterase
half-life [2]: 30 min
half-life at 4.9 µM (pig liver esterase; [4]): < 5 min
half-life at 4.9 µM (pig liver esterase; [5]): 15 min

CC(C)OC(=O)CC1CN(C2=Nc3ccc(F)cc3Oc3ccccc32)CCN1 (stereo not drawn) [M, (E)-isopropyl 2-(4-(7-fluorodibenzo[b,f][1,4]oxazepin-11-yl)piperazin-2-yl)acetate]
Ki [1]: 2.51 to 9.77 µM
Ki (human 5HT2C receptors): 0.1 to 0.977 µM
Ki (human M3 receptors): > 10 µM
half-life [2]: 30 min
half-life at 4.9 µM (pig liver esterase; [4]): < 5 min
half-life at 4.9 µM (pig liver esterase; [5]): 15 min

CC(C)OC(=O)CC1CN(C2=Nc3cc(Cl)ccc3Oc3ccccc32)CCN1 (stereo not drawn) [L, (E)-isopropyl 2-(4-(8-chlorodibenzo[b,f][1,4]oxazepin-11-yl)piperazin-2-yl)acetate]
Ki [1]: 0.631 to 2.45 µM
Ki (human 5HT2C receptors): 0.01 to 0.0977 µM
Ki (human M3 receptors): > 10 µM
half-life [2]: 30 min
half-life at 4.9 µM (pig liver esterase; [4]): < 5 min
half-life at 4.9 µM (pig liver esterase; [5]): 30 min

CCOC(=O)C[C@H]1CN(C2=Nc3cc(Cl)ccc3Oc3ccccc32)CCN1 [Compound K, (S,E)-ethyl 2-(4-(8-chlorodibenzo[b,f][1,4]oxazepin-11-yl)piperazin-2-yl)acetate]
IC50 binding affinity for D2L receptors ([1]; in words): low micromolar
binds to D2L dopamine receptors ([1]; in words): Binds
Ki [1]: 0.631 to 2.45 µM
affinity for the D2L receptor compared with clozapine ([1]; relative to clozapine, in words): comparable
binding to 5-HT2c (human 5HT2C receptors): bind
Ki (human 5HT2C receptors): 0.01 to 0.0977 µM
affinity for the 5-HT2c receptors, fold lower than clozapine (human 5HT2C receptors; relative to clozapine): 1.2 fold
affinity to M3 receptors (human M3 receptors): very low affinity
Ki (human M3 receptors): > 10 µM
Ki (human 5HT7 receptors): 0.631 to 1.55 µM
NMDA antagonist-induced deficits in prepulse inhibition [3]: Restore

O=C(C[C@H]1CN(C2=Nc3cc(Cl)ccc3Oc3ccccc32)CCN1)OC1CCOCC1 [DV, (S,E)-tetrahydro-2H-pyran-4-yl 2-(4-(8-chlorodibenzo[b,f][1,4]oxazepin-11-yl)piperazin-2-yl)acetate]
Ki [1]: 2.51 to 9.77 µM
Ki (human 5HT2C receptors): 0.01 to 0.0977 µM
Ki (human M3 receptors): > 10 µM
Ki (human 5HT7 receptors): 1.58 to 3.89 µM
HLMs Enzyme [2]: Esterase
half-life [2]: 60 min
half-life at 4.9 µM (pig liver esterase; [4]): < 5 min
half-life at 4.9 µM (pig liver esterase; [5]): 15 min

CN1CCN(C2=Nc3cc(Cl)ccc3Oc3ccccc32)C[C@@H]1CC(=O)NCC(F)(F)C(F)(F)F [EU, (S,E)-2-(4-(8-chlorodibenzo[b,f][1,4]oxazepin-11-yl)-1-methylpiperazin-2-yl)-N-(2,2,3,3,3-pentafluoropropyl)acetamide]
half-life [2]: 60 min
Pig Liver Esterase (t1/2 min.) (+) plasma (pig liver esterase; pig liver esterase in human plasma protein solution): Stable
Pig Liver Esterase (t1/2 min.) (−) plasma (pig liver esterase; pig liver esterase in phosphate buffer, no plasma protein): Stable

O=C(O)C[C@H]1CN(C2=Nc3cc(Cl)ccc3Oc3ccccc32)CCN1 [Compound Q, (S,E)-2-(4-(8-chlorodibenzo[b,f][1,4]oxazepin-11-yl)piperazin-2-yl)acetic acid]
binds to D2L dopamine receptors ([1]; in words): not
Ki [1]: > 10 µM
binding to 5-HT2c (human 5HT2C receptors): bind
Ki (human 5HT2C receptors): 0.1 to 0.977 µM
affinity to M3 receptors (human M3 receptors): very low affinity
Ki (human M3 receptors): > 10 µM
NMDA antagonist-induced deficits in prepulse inhibition [3]: Restore

O=C(C[C@H]1CN(C2=Nc3cc(Cl)ccc3Oc3ccccc32)CCN1)O[C@H]1CCOC1 [EQ, (S)-tetrahydrofuran-3-yl 2-((S)-4-((E)-8-chlorodibenzo[b,f][1,4]oxazepin-11-yl)piperazin-2-yl)acetate]
HLMs Enzyme [2]: Esterase
half-life [2]: 15 min
half-life at 4.9 µM (pig liver esterase; [4]): 5 min
half-life at 4.9 µM (pig liver esterase; [5]): 30 min
